What all share (type): functional
Assay [1] in a line: Antiplatelet activity in Sprague-Dawley rat platelet-rich plasma assessed as minimum drug level causing inhibition of arachidonic acid-induced platelet aggregation administered 2 mins before arachidonic acid challenge by modified smear method.
Assay [2] is described as follows: Antiplatelet activity in Sprague-Dawley rat platelet-rich plasma assessed as minimum drug level causing inhibition of ADP-induced platelet aggregation administered 2 mins before ADP challenge by modified smear method.
Assay [3] can be described thus: Antiplatelet activity in Sprague-Dawley rat platelet-rich plasma assessed as minimum drug level causing inhibition of collagen-induced platelet aggregation administered 2 mins before collagen challenge by modified smear method.

Two compounds from ChEMBL document CHEMBL1151649, “Modified smear method for screening potential inhibitors of platelet aggregation from plant sources” (1985) can be followed below.

In the case of `COc1ccc(Cc2nccc3cc(OC)c(OC)cc23)cc1OC` [PAPAVERINE], the values for the Activity in assay [1], in assay [2] and in assay [3] were 10 µg/mL, 100 µg/mL and 25 µg/mL, respectively.

Turning to `CC(=O)Oc1ccccc1C(=O)O` [ASPIRIN], the Activity was determined as 50 µg/mL in assay [1], 1000 µg/mL in assay [2] and 250 µg/mL in assay [3].
